The text below walks through data of patent US12589103B2, “Antimicrobial and antiviral effects of C2-C7 alkyl boronic acids” (CORNELL UNIVERSITY, priority 2019, dated 2026).

Data set [1] concerns the target T1, 3CL protease of the FIP virus (Feline coronavirus, UniProt Q98VG9).
T1 construct: 3CL protease of the FIP virus
As to conditions: cited from earlier work.

The next data set relates to FIPV. As to conditions: known drugs; cited from earlier work.
Data set [2] relates to typhoid toxin B subunit (CdtB). Format: cell-based, Salmonella typhi.
The test system of data set [3] is AIEC E. coli isolated from people (MDR and non-MDR strains). As to the kind of experiment: Growth of MDR and non-MDR E. coli associated with Crohn's disease. Format: cell-based. As to conditions: 40 mM, LB broth, 48 hrs. How it is done: (§1) The ability of C1-C3 alkyl boronic acids and BA to impact the growth of MDR E. coli isolated from people and dogs was evaluated using a temperature controlled 96-well multiplate incubator at 37° C. over 48 hrs. Growth in media (LB broth) with and without ABA C2-6 (40 mM) was monitored by readings at OD600 with the AUC of the growth curve calculated.

The subject of data set [4] is Salmonella. As to the kind of experiment: Soft agar motility assay, Salmonella. Format: cell-based. The conditions noted are these: % motility of the control. How it is done: (§2) The ability of ABA C1-3 and BA to impact the motility of E. coli and Salmonella was evaluated using sloppy agar treated with and without BA and C1-C3 alkyl boronic acids. Motility is strongly linked to the virulence phenotype of these bacterial strains. E. coli was grown overnight at 37° C. in LB broth. Soft agar plates (1% tryptone, 0.5% NaCl, 0.25% agar) were prepared the day before the assay was carried out. Sterile NaCl (control), boric or boronic acid stock solution was added into the agar right before pouring the plates. The overnight cultures of E. coli were transferred (3 μl) on to the center of each plate, followed by incubation of the plates at 37° C. for 10 h. E. coli motility was quantified by measuring the diameter of the circular swarming area formed by the growing motile bacteria.

Data set [5] concerns Salmonella. Put plainly: Growth of five Salmonella strains. Format: cell-based. On the procedure:
(§3) The control sample contained 40 mM NaCl.

Data set [6] concerns AIEC and cancer associated E. coli. As to the kind of experiment: Soft agar motility assay, E. coli. As to conditions: 10 h, AIEC NC101, 541-1, cancer associated E. coli. Format: cell-based. On the procedure: as §2
The subject of data set [7] is AIEC in murine macrophage J774A.1 cells. Put plainly: Uptake and survival of AIEC in J774A.1 macrophages. Format: cell-based, E. coli.
For data set [8], the system named is Feline Infectious Peritonitis Virus (FIPV) Black (TN-406). As to the kind of experiment: FIPV replication and syncytium formation, immunofluorescence. Format: cell-based, Feline Coronavirus type I. The conditions noted are these: 10, 20, 30, 40 mM; Feline Lung cells, 18 h post-infection.
For a further data set, the system named is AIEC 541-1 and LF82. Put plainly: Adhesion and invasion of Caco-2 cells by AIEC. As to conditions: 30 mM, m.o.i 10, 3 h. Format: cell-based, E. coli.
For data set [9], the system named is probiotic Lactobacillus spp. As to the kind of experiment: Growth of probiotic Lactobacillus strains. As to conditions: three Lactobacillus strains.
Data set [10] relates to AIEC E. coli from dogs (MDR and non-MDR strains). Put plainly: Growth of MDR and non-MDR E. coli associated with Granulomatous colitis in dogs. Format: cell-based. The conditions noted are these: 40 mM, LB broth, 48 hrs. How it is done: as §1
Non-MDR strains KD1, KD2, and KD3 were also evaluated.

Data set [11] has as its system diarrheagenic E. coli and APEC. As to the kind of experiment: Growth of diarrheagenic and APEC E. coli in LB media. Format: cell-based. As to conditions: 30 mM. On the procedure:
as §3
Diarrheagenic E. coli pathogroups differ by their preferential host colonization sites, virulence mechanisms, and clinical symptoms.

In a further data set the test system is nF-κB. Put plainly: E. coli induced nF-κB activation in HEK-Blue KD-TLR5 cells (SEAP reporter). Format: cell-based. As to conditions: m.o.i 20, SEAP at 24 h. How it is done:
HEK-Blue KD-TLR5 cells were used to detect the promotor activation of nF-κB by E. coli infection with or without boric or boronic acid treatment. nF-κB is the prototypical transcription factor for pro-inflammatory cytokines in epithelium. Briefly, cells were seeded in 96-well plates at a density of 5×10^4 cells per well. E. coli was diluted into fresh cell medium containing either NaCl (Control), boric or boronic acid at an m.o.i of 200 as 10× inocula, followed by addition of this inoculum (10 μl) into each well containing 100 μl of medium for a final m.o.i of 20. At 3 h post infection, the cell medium was carefully removed from each well, and replaced with 100 μl of fresh medium containing gentamycin (200 μg mL^−1). At 24 h post infection, the spent medium was collected, and centrifuged at 12,000 r.p.m. for 5 min to remove any particulate matter. QUANTI-Blue Kit (InvivoGen, San Diego, CA, USA) was used to detect the reporter protein SEAP (secreted alkaline phosphatase) following the manufacturer's instructions.

Entries after “also recorded” stand apart in the source; their conditions may differ.

T1 sequence (Q98VG9 2904-3205): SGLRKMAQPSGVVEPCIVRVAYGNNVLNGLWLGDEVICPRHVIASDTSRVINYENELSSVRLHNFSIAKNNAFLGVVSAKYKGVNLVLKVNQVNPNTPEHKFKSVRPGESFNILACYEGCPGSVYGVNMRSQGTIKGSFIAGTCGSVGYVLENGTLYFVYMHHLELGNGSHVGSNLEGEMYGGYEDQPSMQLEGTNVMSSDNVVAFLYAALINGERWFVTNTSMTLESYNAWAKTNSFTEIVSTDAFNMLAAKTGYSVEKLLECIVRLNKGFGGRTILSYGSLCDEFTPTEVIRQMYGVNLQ
Procedure for AIEC 541-1 and LF82: E. coli was cultured overnight in LB at 37° C. with shaking. Bacterial pellets were re-suspended in PBS before dilution in cell culture media±30 mM boronic acid or alkyl boronic acid to an m.o.i (multiplicity of infection) of 10. Caco-2 cells were infected with the diluted E. coli for 3 h at 37° C. before washing with PBS, then lysed with 1% Triton X-100. Serial dilutions of the lysates were made in PBS and plated on LB agar. The total number of colonies recovered was used to calculate the number of adherent bacteria. For invasion assays, cells were treated with gentamicin (100 μg mL−1) for one hour after initial infection and 3× wash with PBS to kill extracellular bacteria. Cells were then washed 3× after gentamicin treatment, lysed and plated as described above.

Turning to `CC(C)C[C@H](NC(=O)OCc1ccccc1)C(=O)N[C@@H](C[C@@H]1CCNC1=O)C(O)S(=O)(=O)[O-].[Na+]` (some centres unmarked) [GC376], in [1], the “inhibition of FIP virus 3CL protease” value is recorded as “inhibited”. For the same molecule, the “efficacy against FIPV” value in the data set with FIPV is on record as “some efficacy against FIPV”.
`CCCB(O)O` [PBA]: in data set [2], the “typhoid toxin (CdtB) production” value is reported as “inhibition of toxin production (CdtB)”. In the data set on Feline Lung cells, the “cytotoxicity in antiviral assay” value is recorded as “Cytotoxicity was not observed at antiviral doses”. Also, the “growth inhibition of Crohn's disease associated AIEC, MDR and non-MDR” value in [3] is “more effective than BA over a wider range of AIEC, including MDR and non-MDR strains”. Besides, the “motility of Salmonella” value in the data set with Salmonella [4] is given as “highly effective at blocking motility of Salmonella”. Besides, the “inhibition of growth of Salmonella serovars” value in the data set with Salmonella [5] is on record as “inhibit the growth of multiple serovars of Salmonella more effectively than BA”. In the data set on Caco-2 cells, the “degree of cytopathic effect” value was “EBA<BA<PBA”. In data set [6], the “motility of E. coli” value is “highly effective at blocking motility of AIEC and cancer associated E. coli”. The “survival of AIEC in J774A.1 macrophages” value in data set [7] (30 mM during infection, 24 h post infection) is on record as “inhibited the survival”. Also, the “uptake of AIEC by J774A.1 macrophages” value in data set [7] (30 mM, 1 h) is “inhibited the uptake”. The “replication and syncytium formation of FIPV” value in data set [8] is “inhibited replication and syncytium formation of FIPV in infected cells”. In addition, the “adhesion and invasion of Caco-2 by AIEC” value in the data set on AIEC 541-1 and LF82 is “suppress adhesion and invasion of Caco-2 by AIEC 541-1 and LF82”. The “growth of probiotic Lactobacillus spp” value in data set [9] is on record as “do not suppress growth”. Besides, the “growth inhibition of canine Granulomatous colitis associated AIEC, MDR and non-MDR” value in data set [10] was “more effective than BA over a wider range of AIEC, including MDR and non-MDR strains”. Moreover, the “inhibition of growth of diarrheagenic and APEC E. coli” value in [11] was “have activity versus the diarrheagenic E. coli and APEC that varies by pathogroup; also recorded: more effective in inhibiting bacterial growth than BA overall”. In the data set on nF-κB, the “induction of nF-κB by E. coli” value was “reduced the induction of nF-κB by E. coli”.
